Source: publication PMC5967867, “An NMDAR positive and negative allosteric modulator series share a binding site and are interconverted by methyl groups” (eLife, 2018)
Several values for one entry are separate records, joined by “and”; a condition that tells them apart may be missing. Identical values can stand only once. Like-named read-outs stand apart in the source and are kept apart here. Marks after values point to notes of the source that are not given here.

Legend:
[1] = target: GluN1/GluN2C NMDARs (Rattus norvegicus, UniProt P35439+Q00961); assay: Two-electrode voltage-clamp recordings, Xenopus laevis oocytes expressing GluN1/GluN2C; type: cell-based; details: for Modulation by 10 µM (% of control): 10 µM modulator; for Emax: read-out: Maximal Degree of Modulation (% of control)
GluN1/GluN2C NMDARs, sequence (Q00961 20-1237, other chains not shown): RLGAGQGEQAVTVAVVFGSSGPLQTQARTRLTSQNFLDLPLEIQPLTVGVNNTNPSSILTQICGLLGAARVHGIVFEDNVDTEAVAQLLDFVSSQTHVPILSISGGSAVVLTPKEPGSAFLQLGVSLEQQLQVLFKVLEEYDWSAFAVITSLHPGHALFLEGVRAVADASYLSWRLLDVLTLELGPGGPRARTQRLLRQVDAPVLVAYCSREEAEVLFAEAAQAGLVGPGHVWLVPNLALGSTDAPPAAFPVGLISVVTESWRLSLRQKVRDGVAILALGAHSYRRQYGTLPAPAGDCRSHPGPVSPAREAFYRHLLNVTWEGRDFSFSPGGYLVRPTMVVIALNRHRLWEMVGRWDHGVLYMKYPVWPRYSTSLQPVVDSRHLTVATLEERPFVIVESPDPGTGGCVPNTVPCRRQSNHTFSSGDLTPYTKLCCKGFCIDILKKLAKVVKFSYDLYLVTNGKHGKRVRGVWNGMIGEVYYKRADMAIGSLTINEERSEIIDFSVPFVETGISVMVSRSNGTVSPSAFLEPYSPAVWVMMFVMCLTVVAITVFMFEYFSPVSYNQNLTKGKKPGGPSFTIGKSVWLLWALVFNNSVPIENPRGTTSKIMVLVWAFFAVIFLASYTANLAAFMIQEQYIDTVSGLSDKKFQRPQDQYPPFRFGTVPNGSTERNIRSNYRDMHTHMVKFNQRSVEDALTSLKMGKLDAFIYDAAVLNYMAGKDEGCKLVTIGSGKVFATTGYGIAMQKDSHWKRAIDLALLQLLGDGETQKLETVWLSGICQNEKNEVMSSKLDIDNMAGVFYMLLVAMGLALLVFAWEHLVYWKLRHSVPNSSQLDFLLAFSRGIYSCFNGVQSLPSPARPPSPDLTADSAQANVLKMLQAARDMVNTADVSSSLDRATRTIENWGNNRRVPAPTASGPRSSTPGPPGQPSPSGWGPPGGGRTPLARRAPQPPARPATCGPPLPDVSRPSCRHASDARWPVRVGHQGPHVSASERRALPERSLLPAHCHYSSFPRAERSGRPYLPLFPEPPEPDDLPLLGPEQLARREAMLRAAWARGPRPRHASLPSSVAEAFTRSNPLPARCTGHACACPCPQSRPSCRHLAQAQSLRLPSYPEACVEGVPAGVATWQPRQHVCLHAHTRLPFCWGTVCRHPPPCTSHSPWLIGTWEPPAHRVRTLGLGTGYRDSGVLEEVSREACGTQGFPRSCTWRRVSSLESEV
Procedure: (§1) cDNAs for rat wild type NMDAR subunits GluN1-1a (GenBank U11418, U08261; hereafter GluN1 or GluN1a), GluN1-1b (U08263, hereafter GluN1b), GluN2A (D13211), GluN2B (U11419), GluN2C (M91563), and GluN2D (L31611, modified as described in [Monyer et al., 1994]) were provided by Drs. S. Heinemann (Salk Institute), S. Nakanishi (Kyoto University), and P. Seeburg (University of Heidelberg). Site-directed mutagenesis was conducted using the QuikChange kit (Agilent Technologies, Santa Clara, CA) following the recommended protocol. DNA sequencing was used to verify all mutations. The amino acid numbering system started with the initiating methionine as residue number one. For expression in Xenopus laevis oocytes, cDNA constructs were linearized by restriction enzymes, and subsequently used to synthesize in vitro cRNAs following the manufacturer’s protocol (mMessage mMachine, Ambion, ThermoFisher Scientific, Waltham, MA).
Xenopus laevis stage VI oocytes (Ecocyte Biosciences, Austin, TX) were injected as previously described ([Hansen et al., 2013]) 2–7 days prior to recording with cRNA encoding the NMDAR subunits and stored at 15°C in media containing (in mM) 88 NaCl, 2.4 NaHCO3, 1 KCl, 0.33 Ca(NO3)2, 0.41 CaCl2, 0.82 MgSO4, 5 Tris-HCl; pH was adjusted to 7.4 with NaOH and the solution supplemented with 1 U/mL penicillin, 0.1 mg/mL gentamicin sulfate, and 1 μg/mL streptomycin. Two-electrode voltage-clamp recordings were performed at room temperature (21–23°C) using different internal solutions for voltage and current electrodes (0.3 M and 3.0 M KCl, respectively). All extracellular solutions were made from a solution containing (in mM) 90 NaCl, 1 KCl, 10 HEPES, 0.5 BaCl2, 0.01 EDTA (pH 7.4 with NaOH). Experiments were performed using an eight port Modular Valve Positioner (Hamilton Company, Reno, NV) and controlled by custom software (Easy Oocyte, Emory University, Atlanta, GA)to exchange solutions. Oocyte currents were recorded at a holding potential of −40 mV using a two-electrode voltage-clamp amplifier (OC-725B or OC-725C, Warner Instruments, Hamden, CT). […] In MTSEA experiments, fresh MTSEA solutions (0.2 mM) were prepared and utilized in less than 30 min to limit compound degradation.
Measurements are given as mean ± SEM unless otherwise indicated. The number of replicate experiments used was chosen to ensure a power level of at least 0.80 when α = 0.05 and when detecting appropriate effect sizes. EC50 and IC50 values and confidence intervals reported were calculated by averaging the log(EC50) or log(IC50) value, determining confidence intervals for mean log(EC50) or log(IC50), and converting back to units of molarity. Statistical significance evaluations (α set to 0.05) were performed using a one-way ANOVA with Dunnett’s multiple comparison test, a paired t–test, or other appropriate tests as described.

[2] = target: GluN1/GluN2A NMDARs (Rattus norvegicus, UniProt P35439+Q00959); assay: Whole cell patch-clamp recordings, HEK293 cells expressing GluN1/GluN2A; type: cell-based; details: for modulation of high desensitized steady state responses / modulation of low desensitized steady state responses (drug/control): 10 µM, 100/30 µM glutamate/glycine; for modulation of high desensitized steady state responses / modulation of low desensitized steady state responses (drug/control) / Kd: HEK cells; for kon / koff: HEK293; for kon: read-out: association rate kon; for koff: read-out: dissociation rate koff; for Kd: calculated from association and dissociation rates, read-out: kinetically-determined affinity constant Kd
GluN1/GluN2A NMDARs, sequence (Q00959 23-1464, other chains not shown): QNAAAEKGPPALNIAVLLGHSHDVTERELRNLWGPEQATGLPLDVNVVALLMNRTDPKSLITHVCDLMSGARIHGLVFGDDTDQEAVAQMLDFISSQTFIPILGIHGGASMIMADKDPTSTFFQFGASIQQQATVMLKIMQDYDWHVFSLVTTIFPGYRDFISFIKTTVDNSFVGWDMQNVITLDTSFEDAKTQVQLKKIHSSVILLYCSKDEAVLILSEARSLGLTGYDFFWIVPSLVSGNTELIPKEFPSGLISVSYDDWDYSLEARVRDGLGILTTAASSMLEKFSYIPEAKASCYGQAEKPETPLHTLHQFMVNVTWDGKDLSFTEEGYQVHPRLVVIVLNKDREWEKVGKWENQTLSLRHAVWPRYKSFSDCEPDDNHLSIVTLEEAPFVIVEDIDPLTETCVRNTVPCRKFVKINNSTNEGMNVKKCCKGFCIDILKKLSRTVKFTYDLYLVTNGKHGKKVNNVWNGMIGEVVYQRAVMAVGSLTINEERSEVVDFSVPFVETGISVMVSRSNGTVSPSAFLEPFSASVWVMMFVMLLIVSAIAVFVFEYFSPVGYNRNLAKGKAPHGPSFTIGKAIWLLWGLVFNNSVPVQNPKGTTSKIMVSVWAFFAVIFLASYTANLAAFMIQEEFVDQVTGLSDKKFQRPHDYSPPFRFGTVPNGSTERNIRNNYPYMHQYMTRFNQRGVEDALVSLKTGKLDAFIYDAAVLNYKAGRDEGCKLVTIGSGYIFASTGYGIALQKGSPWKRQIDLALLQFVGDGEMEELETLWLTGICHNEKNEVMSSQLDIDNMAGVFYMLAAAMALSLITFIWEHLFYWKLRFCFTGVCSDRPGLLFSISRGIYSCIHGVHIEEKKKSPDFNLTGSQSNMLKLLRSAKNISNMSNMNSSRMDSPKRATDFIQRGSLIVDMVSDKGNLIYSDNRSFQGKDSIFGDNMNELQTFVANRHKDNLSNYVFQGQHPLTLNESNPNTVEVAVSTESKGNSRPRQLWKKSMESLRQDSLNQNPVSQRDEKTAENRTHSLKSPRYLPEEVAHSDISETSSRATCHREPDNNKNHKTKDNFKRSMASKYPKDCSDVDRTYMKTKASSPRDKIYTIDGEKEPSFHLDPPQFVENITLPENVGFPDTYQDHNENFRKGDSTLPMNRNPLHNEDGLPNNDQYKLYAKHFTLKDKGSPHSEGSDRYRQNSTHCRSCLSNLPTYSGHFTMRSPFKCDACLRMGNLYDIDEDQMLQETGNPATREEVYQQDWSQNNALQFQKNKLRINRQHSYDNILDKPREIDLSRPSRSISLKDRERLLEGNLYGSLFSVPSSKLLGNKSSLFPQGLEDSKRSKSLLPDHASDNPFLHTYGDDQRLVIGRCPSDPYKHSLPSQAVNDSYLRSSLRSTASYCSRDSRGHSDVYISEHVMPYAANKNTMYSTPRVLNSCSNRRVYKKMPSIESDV
Procedure: We studied NMDARs expressed in HEK293 cells to investigate the time course of modulator action. […] These modulators were tested on GluN1/GluN2A and GluN1/GluN2D to see whether there were differences in modulation given the distinct properties of these NMDAR subtypes. […] From these we calculated the kinetically-determined affinity constant (Kd), which we found to be similar to the EC50 values determined from concentration-response experiments. […] Complex actions of EU1794-4 and EU1794-27 were observed, with two temporally-distinct phases of modulation evident for the association of these modulators (Figure 4A). Both compounds produced a rapid inhibition followed by a slowly developing potentiating phase for EU1794-27. The rapid association rate determined during the rapid inhibition produced by EU1794-4 was approximately three times faster than EU1794-2; similarly, the dissociation rate was also faster for EU1794-4 than EU1794-2. Quantitative analysis of the slower phases was challenging due to its lower signal-to-noise ratio. Likewise, the rapid inhibitory phase was also difficult to measure for EU1794-27 because its rapid time course was convolved with the potentiation time course. Additionally, the depotentiation time course is preceded by a transient enhancement of the current response, followed by a relaxation to the pre-modulation level. The time course for potentiation and depotentiation were best fit with an exponential function summed with an additional linear component after the rapid phase subsided. […] All modulatory effects were independent of voltage (Figure 4—figure supplement 1A). The steady state modulator responses from HEK293 cells approximately match the concentration-response relationship determined from TEVC recordings from X. laevis oocytes (Figure 4A, inset graphs). The time-course of modulator binding of EU1794-2, EU1794-4 and EU1794-27 was also determined for GluN1/GluN2A (Figure 4C,D). Higher Kd values (lower potency) were determined for each molecule at GluN1/GluN2A as compared to GluN1/GluN2D that parallel EC50 values determined using X. laevis oocytes. Similar to oocyte data, robust inhibition was produced by EU1794-2, modest inhibition was produced by EU1794-4, and transient inhibition and recovery was observed by the application of EU1794-27. […] The low desensitized group (40% average desensitization) was modulated by 107%, whereas the high desensitized group (10% average desensitization) was modulated to 247% of control by 10 µM EU1794-27 (Figure 4C and Figure 4—figure supplement 1F).
as §1
HEK293 cells (CRL-1573, ATCC, Manassas, VA) were maintained in a tissue culture room solely reserved for their culturing and transfected using a CaPO4 protocol to express the diheteromeric NMDARs as previously described ([Hansen et al., 2013]). Cell lines were obtained directly from the supplier, were expanded, frozen and kept in liquid nitrogen in a dewar. Mycoplasma testing was not performed. cDNA ratios for transfection were 1:1:1 (GluN2D) or 1:1:5 (GluN2A) for GluN1:GluN2:GFP. […]

[3] = glutamate/glycine 100/30 µM, no second modulator (+EU1794-27 0 µM), read-out: IC50 (µM) [conf. int.]
[4] = saturating glutamate/glycine 100/30 µM, mean [95% CI], read-out: EC50 (µM) [conf. int.]
[5] = saturating glutamate/glycine 100/30 µM, mean ± SEM
[6] = Glu/Gly 1/0.3 µM (sub-saturating)
[7] = sub-saturating glutamate/glycine 1/0.3 µM, read-out: EC50 (µM) [conf. int.]
[8] = sub-saturating glutamate/glycine 1/0.3 µM
[9] = concentration dependence of linear component of time course

Modulation by 10 µM (% of control) ([1]; Glu/Gly 100/30 µM)	IC50 [1, 3]	EC50 [1, 4]	Emax [1, 5]	kon [2]	koff [2]	Kd [2]	Modulation by 10 µM (% of control) [1, 6]	EC50 [1, 7]	Emax [1, 8]	Structure (SMILES)	modulation of high desensitized steady state responses [2]	modulation of low desensitized steady state responses (drug/control) [2]	also measured
16 ± 1.0 % of control	0.21 µM	0.26 µM	14%	390000 M⁻¹ s⁻¹	0.938 s⁻¹	2.41 µM				CCOC(=O)c1c(NC(=O)CC2SC(=N)NC2=O)sc2c1CCC(C)C2 (stereo not shown) [EU1794-2, ethyl 2-(2-(2-imino-4-oxothiazolidin-5-yl)acetamido)-6-methyl-4,5,6,7-tetrahydrobenzo[b]thiophene-3-carboxylate]	32 % of control	13 % of control	Modulation by 10 µM (% of control) ([1]; Glu/Gly 0.6/0.2 µM (sub-saturating)): 43 ± 2.1 % of control; IC50 ([1]; +EU1794-27 3 µM, glutamate/glycine 100/30 µM, read-out: EU1794-2 IC50 (µM) [conf. int.]): 1.2 µM; IC50 ([1]; +EU1794-27 10 µM, glutamate/glycine 100/30 µM, read-out: EU1794-2 IC50 (µM) [conf. int.]): 2.4 µM; IC50 ([1]; +EU1794-27 20 µM, glutamate/glycine 100/30 µM, read-out: EU1794-2 IC50 (µM) [conf. int.]): 6 µM; EC50 ([1]; sub-saturating glutamate/glycine 0.6/0.2 µM, read-out: EC50 (µM) [conf. int.]): 0.72 µM; Emax ([1]; sub-saturating glutamate/glycine 0.6/0.2 µM): 41%
190 ± 10 % of control		2.8 µM	230%	59200 M⁻¹ s⁻¹	0.426 s⁻¹	7.2 µM	480 ± 31 % of control	5 µM	680%	CC(C)(C)OC(=O)c1c(NC(=O)CC2SC(=N)NC2=O)sc2c1CCCC2 (stereo not shown) [EU1794-27, tert-butyl 2-(2-(2-imino-4-oxothiazolidin-5-yl)acetamido)-4,5,6,7-tetrahydrobenzo[b]thiophene-3-carboxylate]	247 % of control and 247 ± 31 % of control	107 % of control and 107 ± 16 % of control	EC50 ([1]; +EU1794-2 1 µM, glutamate/glycine 100/30 µM, read-out: EU1794-27 EC50 (µM) [conf. int.]): 7.3 µM; EC50 ([1]; +EU1794-2 3 µM, glutamate/glycine 100/30 µM, read-out: EU1794-27 EC50 (µM) [conf. int.]): 7.3 µM; Fold Difference (glutamate EC50) ([1]; control vs 10 µM EU1794-27): 3.3^†; Fold Difference (glycine EC50) ([1]; control vs 10 µM EU1794-27): 2.4; association linear component slope mon [2, 9]: −0.33 pA/(s*µM); dissociation linear component slope moff [2, 9]: 0.16 pA/(s*µM)
54 ± 1.6 % of control	0.42 µM	0.42 µM	52%	502000 M⁻¹ s⁻¹	3.94 s⁻¹	7.85 µM	140 ± 12 % of control	15 µM	220%	CCOC(=O)c1c(NC(=O)CC2SC(=N)NC2=O)sc2c1CCCC2 (stereo not shown) [EU1794-4, ethyl 2-(2-(2-imino-4-oxothiazolidin-5-yl)acetamido)-4,5,6,7-tetrahydrobenzo[b]thiophene-3-carboxylate]		47 % of control	Modulation by 10 µM (% of control) ([1]; Glu/Gly 0.3/0.09 µM (sub-saturating)): 660 ± 110 % of control; Fold Difference (glutamate EC50) ([1]; control vs 10 µM EU1794-4): 3.2^†; Fold Difference (glycine EC50) ([1]; control vs 10 µM EU1794-4): 4.6^†
